Data: patent publication US7087252B2, “Medicinal preparation containing phenylethanoid glycosides extracted from herbaceous plant, Cistanche tubulosa (Schrenk.) Wight, process of making the same, and uses of the same” (Sinphar Pharmaceutical Co., Ltd., priority 2003, dated 2006)

Experiments:
[1] = tested on: blood platelets aggregation of rats; assay: ADP-caused aggregation of blood platelets of rats after oral administration; format: in vivo, male SD rats; details: 100 mg/kg orally for 7 days
Method: A study was done on the effect of the preparation of the present invention on aggregation of blood platelets of the rats.
The aggregation of blood platelets was caused by using adenosine disodium diphosphate (ADP). 1 mg/ml ADP solution was kept refrigerated before use. When the ADP solution was about to be used, it was diluted three times with the phosphoric acid buffer solution.
The male SD rats were randomly divided into five groups in accordance with the body weight. These five groups were the distilled water comparative group, the aspirin group, the 200 mg/kg preparation group, the 100 mg/kg preparation group, and the 50 mg/kg preparation group. The drugs were orally administered, with the administration volume being […]. The rats of the distilled water comparative group were given distilled water in same quantity. The administration continued for 7 days. The rats were not fed for 12 hours prior to the final administration. One hour after the final administration the blood was drawn out from the main artery. The blood so draw out was prevented from aggregation by 3.8% sodium citrate (1:9). […] The aggregation degree was determined by using a SPA-4 multifunctional blood platelet aggregation meter. The inhibition rate of the blood platelet aggregation is calculated by the following formula. […]

[2] = tested on: thrombosis of the vein bypass of rats; assay: Thrombosis of the vein bypass of rats; format: in vivo, male SD rats; details: 100 mg/kg orally
Description: A study was done on the effect of the preparation of the present invention on thrombosis of the vein bypass of the rats. The male SD rats were studied as compared with the aspirin. Thrombosis inhibition rate (%)=(distilled water comparative group thrombosis weight−drug group thrombosis weight)/distilled water comparative group thrombosis weight×100%.

[3] = tested on: learning memory of LACA mice; assay: Water maze experiment, effect on learning memory of mice (d value analysis of response time); format: in vivo; details: 400 mg/kg orally vs control group; second time test; n = 27
Description: The medicinal preparation of the present invention was used in a water maze experiment to study its effect on the learning memory of LACA mice. The Piracetam Tablets was used as a positive comparative drug for testing 6 days per week. The test lasted for 27 days. According to the data listed in the Table 2, it is readily apparent that the preparation of the present invention has a meaningful effect on the learning memory of the mice, as exemplified by the difference in the response time between the control group and the doped groups, which were respectively doped with 50 mg/kg of the preparation containing phenylethanoid glycosides, 200 mg/kg of the preparation containing phenylethanoid glycosides, and 400 mg/kg of the preparation containing phenylethanoid glycosides.

[4] = tested on: memory loss of LACA mice induced by ethanol; assay: Water maze experiment, prevention of memory loss induced by ethanol; format: in vivo; details: 400 mg/kg, one-week orally
Method: The effect of the preparation of the present invention on the prevention of memory loss by the LACA mice was studied by the water maze experiment. The mice were orally administered with the drugs. One hour after such an oral administration, they were provided with 30% ethanol 0.1 ml/10 g BW. In 30 minutes, the water maze experiment was started.

Row | SMILES | aggregation inhibition ([1]; vs distilled water group) [%] | maximum aggregation ([1]; ±SD) [%] | thrombosis inhibition rate ([2]; vs distilled water comparative group) [%] | thrombosis weight ([2]; x ± SD) [mg] | d value ≧0.5, % [3] [%] | d value ≧0.5, day [3] [days] | d value ≧0.5 sum, % [3] [%] | d value ≧0.5 sum, day (period when the response time shows meaningful difference) [3] [days] | d value ≧0.8, % [3] [%] | d value ≧0.8, day [3] [days] | Arrival at destination after being trained, Error number [4] | Arrival at destination after being trained, Time [4] [s] | Arrival at destination after being trained, error number of animal [4] | Arrival at destination after being given alcohol, Error number ([4]; 30% ethanol 0.1 ml/10 g BW) | Arrival at destination after being given alcohol, Error rate ([4]; 30% ethanol 0.1 ml/10 g BW) | Arrival at destination after being given alcohol, Group error rate ([4]; 30% ethanol 0.1 ml/10 g BW) | Arrival at destination after being given alcohol, error number of animal ([4]; 30% ethanol 0.1 ml/10 g BW)
1 | CC(=O)Oc1ccccc1C(=O)O [aspirin] | 40.30 | 32.73 ± 11.14 | 34.97 | 29.2 ± 4.00 | – | – | – | – | – | – | – | – | – | – | – | – | –
2 | NC(=O)CN1CCCC1=O [Piracetam] | – | – | – | – | 18.5 | 5 | 25.5 | 7 | 7.4 | 2 | 0/0 | 8.00 ± 0.46 | 0/0 | 54 | 9.00 times/number of animal | 5.40 times/number of animal | 6
